According to ChEMBL document CHEMBL1140748, “Synthesis and biological evaluation of novel 2,4-diaminoquinazoline derivatives as SMN2 promoter activators for the potential treatment of spinal muscular atrophy” (J Med Chem, 2008):
pEC50: −log10 of the molar value.

Experiments:
[1] = Activation of SMN2 promoter in mouse NSC34 cells assessed as induction of beta-lactamase activity; type: functional, cell-based
[2] = Activation of SMN2 promoter in mouse NSC34 cells assessed as induction of beta-lactamase activity relative to nonactivated cells; type: functional
Throughout, for activity: test concentration or dose not given here.

Compound | pEC50 ([1]; Mus musculus, NSC-34) | Activity [2] | pEC50 ([1]; nsc34)
CC(Oc1cccc2nc(N)nc(N)c12)c1cc(F)cc(F)c1 (racemic) | 7.46 |  | 
CCCCOc1cccc2nc(N)nc(N)c12 | 6.85 | 2.2 | 
CC(Oc1cccc2nc(N)nc(N)c12)c1ccccc1Cl (racemic) | 6.54 |  | 
Nc1nc(N)c2c(OCc3ccccc3Cl)cccc2n1 | 6.85 | 2 | 
Nc1nc(N)c2c(OCC3CCN(S(=O)(=O)c4ccc(Cl)cc4)CC3)cccc2n1 | 6.22 | 2 | 
Nc1nc(N)c2c(OCC3CCN(C(=O)c4cccc5ccccc45)CC3)cccc2n1 | 7.46 | 2.5 | 
Nc1nc(N)c2c(OCC3CCN(S(=O)(=O)c4ccc(F)c(F)c4)CC3)cccc2n1 | 7.40 | 2.1 | 
Cc1ccccc1S(=O)(=O)N1CCC(COc2cccc3nc(N)nc(N)c23)CC1 | 6.26 | 2 | 
Nc1nc(N)c2c(Oc3ccc4cnccc4c3)cccc2n1 | 5.90 | 2.3 | 
Nc1nc(N)c2c(OCc3ccc(F)c(F)c3)cccc2n1 | 7.85 | 1.8 | 
CC(Oc1cccc2nc(N)nc(N)c12)c1ccc(Cl)c(Cl)c1 (racemic) | 6.49 |  | 
Nc1nc(N)c2c(OCC3CCN(Cc4ccc(F)c(F)c4)CC3)cccc2n1 | 6.49 | 2 | 
Cc1cccc(COc2cccc3nc(N)nc(N)c23)c1 | 6.92 | 1.7 | 
CC(Oc1cccc2nc(N)nc(N)c12)c1ccccc1C(F)(F)F (racemic) | 6.00 |  | 
CC(C)(C)COc1cccc2nc(N)nc(N)c12 | 6.19 | 2.1 | 
Cc1ccccc1CN1CCC(COc2cccc3nc(N)nc(N)c23)CC1 | 7.74 | 1.9 | 
Nc1nc(N)c2c(OCC3CCN(Cc4ccccc4Cl)CC3)cccc2n1 | 7.42 | 2 | 
COc1ccc(OCc2cccc3nc(N)nc(N)c23)cc1 | 5.85 | 2.1 | 
Nc1nc(N)c2c(OCc3ccc(C(F)(F)F)cc3)cccc2n1 | 7.77 | 1.6 | 
Nc1nc(N)c2c(COc3ccccc3Cl)cccc2n1 | 5.94 | 2.2 | 
Cc1cccc(S(=O)(=O)N2CCC(COc3cccc4nc(N)nc(N)c34)CC2)c1 | 6.66 | 1.8 | 
Nc1nc(N)c2c(OCC3CCCCC3)cccc2n1 | 5.57 | 1.9 | 
Nc1nc(N)c2c(OCc3cccc(C(F)(F)F)c3)cccc2n1 | 7.64 | 1.5 | 
Nc1nc(N)c2c(OCC3CCN(C(=O)c4ccc(F)cc4F)CC3)cccc2n1 | 7.05 | 2.4 | 

Compound | pEC50 ([1]; Mus musculus, NSC-34) | Activity [2] | pEC50 ([1]; nsc34)
Nc1nc(N)c2c(OCc3cc(F)ccc3F)cccc2n1 | 7.33 | 2 | 
Nc1nc(N)c2c(Oc3ccc(F)cc3)cccc2n1 | 5.88 | 1.7 | 
Nc1nc(N)c2c(OCc3cc4ccccc4cn3)cccc2n1 | 6.66 | 2.3 | 
Cc1ccc(OCc2cccc3nc(N)nc(N)c23)cc1 | 6.39 | 2.2 | 
Cc1ccccc1C(=O)N1CCC(COc2cccc3nc(N)nc(N)c23)CC1 | 6.80 | 2.5 | 
Nc1nc(N)c2c(OCC3CCN(Cc4cccc(F)c4F)CC3)cccc2n1 | 7.42 | 2.2 | 
CC(C)COc1cccc2nc(N)nc(N)c12 | 6.74 | 1.8 | 
Nc1nc(N)c2c(OCc3cccnc3)cccc2n1 | 7.62 | 2.1 | 
Nc1nc(N)c2c(OCC3CCN(S(=O)(=O)c4cccc5ccccc45)CC3)cccc2n1 | 6.46 | 1.9 | 
Nc1nc(N)c2c(COc3ccc(F)cc3)cccc2n1 | 6.46 | 2.2 | 
Nc1nc(N)c2c(OC3(c4cccc(Cl)c4)CC3)cccc2n1 | 6.54 |  | 
Nc1nc(N)c2c(OCC3CCN(C(=O)c4ccc(Cl)cc4)CC3)cccc2n1 | 7.09 | 2.4 | 
Nc1nc(N)c2c(Oc3ccc(Cl)cc3)cccc2n1 | 5.69 | 1.84 | 
Cc1cc(COc2cccc3nc(N)nc(N)c23)no1 | 6.55 | 2.2 | 
COc1ccccc1COc1cccc2nc(N)nc(N)c12 | 7.19 | 1.6 | 
Nc1nc(N)c2c(OCC3CCCCO3)cccc2n1 (stereo not drawn) | 6.32 | 2.1 | 
Nc1nc(N)c2c(OCC3CCN(Cc4ccc5ccccc5c4)CC3)cccc2n1 | 6.83 | 1.7 | 
CCOc1cccc2nc(N)nc(N)c12 | 6.77 | 2.1 | 
Cc1ccc(CN2CCC(COc3cccc4nc(N)nc(N)c34)CC2)cc1.Cl | 7.62 | 1.9 | 
Nc1nc(N)c2c(OCC3CCN(S(=O)(=O)c4ccccc4Cl)CC3)cccc2n1 | 6.05 | 2.1 | 
Nc1nc(N)c2c(OCC3CCCC3)cccc2n1 | 6.33 | 1.9 | 
C[C@@H](Oc1cccc2nc(N)nc(N)c12)c1ccccc1 | 6.66 |  | 
Nc1nc(N)c2c(OCC3CCN(C(=O)c4cccc(F)c4F)CC3)cccc2n1 | 7.17 | 2.5 | 
CCCCCOc1cccc2nc(N)nc(N)c12 | 6.72 | 2.1 | 

Compound | pEC50 ([1]; Mus musculus, NSC-34) | Activity [2] | pEC50 ([1]; nsc34)
CC(Oc1cccc2nc(N)nc(N)c12)c1ccc(C(F)(F)F)cc1 (racemic) | 7.30 |  | 
Cc1ccccc1COc1cccc2nc(N)nc(N)c12 | 6.55 | 1.6 | 
Cc1cccc(CN2CCC(COc3cccc4nc(N)nc(N)c34)CC2)c1 | 7.66 | 1.9 | 
CC(Oc1cccc2nc(N)nc(N)c12)c1ccc(F)cc1 (racemic) | 7.74 |  | 
CC(Oc1cccc2nc(N)nc(N)c12)c1cccc(F)c1 (racemic; form 1) |  |  | 7.26
CCCOc1cccc2nc(N)nc(N)c12 | 6.74 | 2.1 | 
Nc1nc(N)c2c(OC3(c4cccc(Cl)c4)CCCCC3)cccc2n1 | 5.77 |  | 
CC(Oc1cccc2nc(N)nc(N)c12)c1cccc(F)c1 (racemic; form 2) | 7.30 |  | 
COc1cccc(COc2cccc3nc(N)nc(N)c23)c1 | 7.18 | 1.6 | 
Nc1nc(N)c2c(OCC3CCN(Cc4ccc(Cl)cc4)CC3)cccc2n1 | 7.33 | 1.8 | 
Nc1nc(N)c2c(Oc3cccc(Cl)c3)cccc2n1 | 6.32 | 1.74 | 
Cl.Nc1nc(N)c2c(Oc3cccc4cnccc34)cccc2n1 | 5.99 | 2.04 | 
Nc1nc(N)c2c(OCC3CCN(S(=O)(=O)c4ccc(F)cc4F)CC3)cccc2n1 | 7.09 | 2 | 
CC(Oc1cccc2nc(N)nc(N)c12)c1ccc2c(c1)OCO2 (racemic) | 5.95 |  | 
Nc1nc(N)c2c(Oc3ccccc3Cl)cccc2n1 | 6.29 | 1.76 | 
Nc1nc(N)c2c(OCC3CCN(S(=O)(=O)c4cccc(Cl)c4)CC3)cccc2n1 | 6.76 | 1.9 | 
CC(Oc1cccc2nc(N)nc(N)c12)c1ccccc1 (racemic) | 6.62 |  | 
Nc1nc(N)c2c(OCC3CCN(Cc4cccc5ccccc45)CC3)cccc2n1 | 7.37 | 2 | 
C[C@H](Oc1cccc2nc(N)nc(N)c12)c1ccccc1 | 7.22 |  | 
CC(C)(Oc1cccc2nc(N)nc(N)c12)c1cccc(Cl)c1 | 5.63 |  | 
CC(Oc1cccc2nc(N)nc(N)c12)c1ccc(Cl)cc1 (racemic) | 7.10 |  | 
Nc1nc(N)c2c(Oc3cccc4ccncc34)cccc2n1 | 5.61 | 1.59 | 
CCCCCCCCCOc1cccc2nc(N)nc(N)c12 | 6.26 | 1.7 | 
CC(C)(C)C(Oc1cccc2nc(N)nc(N)c12)c1ccc(Cl)cc1 (racemic) | 5.11 |  | 

Compound | pEC50 ([1]; Mus musculus, NSC-34) | Activity [2] | pEC50 ([1]; nsc34)
Cc1ccc(S(=O)(=O)N2CCC(COc3cccc4nc(N)nc(N)c34)CC2)cc1 | 6.26 | 1.9 | 
Nc1nc(N)c2c(OCc3ccc(F)cc3F)cccc2n1 | 6.92 | 1.8 | 
C[C@H](Oc1cccc2nc(N)nc(N)c12)c1cccc2ccccc12 | 5.62 |  | 
Cl.Nc1nc(N)c2c(OCC3CCN(Cc4ccc(F)cc4F)CC3)cccc2n1 | 7.74 | 1.9 | 
Cc1ccc(C(=O)N2CCC(COc3cccc4nc(N)nc(N)c34)CC2)cc1 | 6.88 | 2.6 | 
Nc1nc(N)c2c(OCc3cc(F)cc(F)c3)cccc2n1 | 7.85 | 1.9 | 
CC(C)CCOc1cccc2nc(N)nc(N)c12 | 7.01 | 2 | 
Nc1nc(N)c2c(OCC3CCN(C(=O)c4ccc5ccccc5c4)CC3)cccc2n1 | 6.82 | 2.4 | 
COc1ccc(COc2cccc3nc(N)nc(N)c23)cc1 | 6.52 | 1.7 | 
Nc1nc(N)c2c(OCC3CCN(C(=O)c4ccccc4F)CC3)cccc2n1 | 7.13 | 2.5 | 
CCC(Oc1cccc2nc(N)nc(N)c12)c1ccc(Cl)cc1 (racemic) | 6.77 |  | 
Nc1nc(N)c2c(OCc3ccccn3)cccc2n1 | 6.60 | 1.9 | 
Nc1nc(N)c2c(OCc3ccc(F)cc3)cccc2n1 | 7.28 | 1.8 | 
Nc1nc(N)c2c(OCc3cccc(F)c3)cccc2n1 | 7.26 | 1.59 | 
Nc1nc(N)c2c(OCc3ccco3)cccc2n1 | 6.52 | 1.7 | 
C[C@H](Oc1cccc2nc(N)nc(N)c12)c1ccc2ccccc2c1 | 6.36 |  | 
Nc1nc(N)c2c(COc3ccccc3I)cccc2n1 | 6.41 | 1.9 | 
Nc1nc(N)c2c(OCc3ccccc3C(F)(F)F)cccc2n1 | 7.80 | 1.6 | 
Cc1ccc(Oc2cccc3nc(N)nc(N)c23)cc1 | 5.92 | 1.6 | 
CC(Oc1cccc2nc(N)nc(N)c12)c1cccc(C(F)(F)F)c1 (racemic) | 7.33 |  | 
Nc1nc(N)c2c(COc3ccc(Cl)cc3)cccc2n1 | 6.72 | 2 | 
C[C@@H](Oc1cccc2nc(N)nc(N)c12)c1cccc(Cl)c1 | 7.49 |  | 
Nc1nc(N)c2c(OCc3cccs3)cccc2n1 | 7.14 | 1.9 | 
